Assay results as given in patent US12409162B2, “Carbazole derivatives sensitizing cells to anti-cancer agents” (CENTRE NATIONAL DE LA RECHERCHE SCIENTIFIQUE, priority 2019, dated 2025).
Read-outs that look alike come from different tables or passages of the source.

Legend:
[1] = test system: HeLa cells; assay: Prestoblue cell viability assay on HeLa cells (compounds alone and with paclitaxel); assay type: cell-based; settings: for GI50: Homo sapiens, HeLa, 72 h
Procedure: (§1) Cell viability was analyzed using the colorimetric Prestoblue assay (Invitrogen, #A13262). Cells were seeded in 96 well microplates (Greiner, #655077) at a density of 2,500 cells per well and allowed to adhere for 24 h before being treated for 72 h with either DMSO (0.1% final concentration) or drugs at indicated concentrations. After the 72 h treatment, 10 μL A Prestoblue was added to each well and cells were incubated for another 45 min. The absorbance of each well was measured using FLUOstar Optima microplate reader (Excitation, 544 nm; Emission, 580 nm).
First, the cytotoxicity on HeLa cells of compounds (I-a), (I-c) (I-f), (I-h), (I-e), (I-m), (I-n) and (I-s) was assessed with the above described “prestoblue” assay.
Then, HeLa cells were treated during 72 hours with different concentrations of a mixture of paclitaxel (0.05, 0.1, 0.25, 0.5, 1, 2.5, 5 nM) and compounds (I-a), (I-f), (I-h), (I-e), (I-m), (I-n), (I-c) and (I-s).

[2] = test system: HeLa cells; assay: FITC Annexin V apoptosis assay by flow cytometry; assay type: cell-based
Procedure: Apoptosis assay was performed with FITC Annexin V Apoptosis Detection Kit I (BD Biosciences, #556547) using flow cytometry and analyzed by FCS express software.

[3] = test system: 4T1 cells; assay: Prestoblue cell viability assay on murine cancer cells; assay type: cell-based; settings: mice breast cancer cell line (4T1 cells), 72 h
Procedure: as §1, with “μL” for “μL A”

[4] = test system: microtubule dynamics in GFP-EB3 transfected cells; assay: Microtubule dynamic instability by time-lapse fluorescence microscopy; assay type: cell-based; settings: 25 μM
Procedure: The effect of a high dose (25 μM) of compound (I-a) on microtubule dynamic instability parameters was measured using time-lapse fluorescence microscopy on GFP-EB3 transfected cells (Table 1).

[5] = test system: HeLa cells; assay: Immunofluorescence of microtubules and DNA; assay type: cell-based
Procedure: The effect of a compound of formula (I) on cell cycle and mitosis of HeLa cells was analyzed by flow cytometry and immunofluorescence.
For immunofluorescence analysis, cells were grown for 48 hours on glass coverslips placed in 24-wells microplates. When cells reached 70% confluence the medium was replaced with a fresh one supplemented with compound (I-a). After a 5-hour exposure to compound (I-a), cells were fixed and permeabilized with −20° C. absolute methanol for 6 min. After washing and saturation with 3% BSA/PBS, cells were incubated for 45 min at room temperature (RT) with anti-alpha-tubulin antibody (1:4000). Cells were washed twice again and subsequently incubated with Alexa 488 conjugated anti-mouse antibody (1:1000) for 30 min at RT. DNA was stained with 20 μmol·L^−1 Hoechst 33342 and coverslips were mounted on microscopic slides with Mowiol 4-88 (Calbiochem, #475904). Images were captured with a Zeiss AxioimagerM2 microscope equipped with the acquisition software AxioVision and analyzed using the Fiji software.

[6] = test system: HeLa cells; assay: Cell cycle distribution by flow cytometry; assay type: cell-based; settings: for cell cycle effect: HeLa
Procedure: For flow cytometry analysis, Hela cells were treated with the indicated concentrations of compound (I-a) for 12 hours, 24 hours and 48 hours. Cells were then harvested and washed by centrifugation in PBS. Then, 10^5 cells were fixed in 1 mL of 70% methanol at 4° C. overnight. Following two washes with PBS the cells were incubated with 50 μg·mL^−1 propidium iodide and 0.2 mg·mL^−1 RNase A/PBS for 30 min at 37° C. before analysis. The percentage of cells in the specific cell-cycle phases (G0, G1, S, G2, and M) was determined using an Accuri C6 flow cytometer (Becton Dickinson). The results are expressed as the mean±SD of three separate experiments. The significance was determined by a Student's t-test (*p<0.05, **p<0.01, ***p<0.0001, compared with the control). Flow cytometry analysis was performed using HeLa cells. […] The results are expressed as the mean±SD of three separate experiments. The significance was determined by a Student's t-test (*p<0.05, **p<0.01, ***p<0.0001, compared with the control).

[7] = test system: HeLa cell tumors; assay: HeLa cell xenograft tumor growth in mice; assay type: in vivo; settings: for weight of treated animals versus vehicle-treated animals: paclitaxel 2 to 8 mg/Kg or (I-a) 15 to 60 mg/Kg i.v. every two days during 10 days
Procedure: The effects on tumor growth of compound (I-a) and paclitaxel injected separately to the effect of a combined administration of compound (I-a) plus paclitaxel were compared in a tumor mouse model.
A first series of experiments (not shown) assessed that HeLa cell tumors were sensitive to therapeutic doses of paclitaxel. To that aim, mice bearing sizable tumors, formed of HeLa cells that have been xenografted, received intraveinous (i.v.) injections of paclitaxel (from 2 to 8 mg/Kg), every two days during 10 days. In the same experiment, the effect of compound (I-a) (from 15 to 60 mg/Kg, i.v.) injected with the same schedule was analyzed. […] The results confirmed the anti-tumor effect of high paclitaxel concentrations in this model. They also indicate that compound (I-a), when applied alone, has no significant anti-tumor activity, even at high concentrations.
A second experiment was conducted to study of the effect on tumor size of low (2 to 3 mg/Kg) paclitaxel doses in combination with different concentrations of compound (I-a).
Protocol for this combination study: 72 NMRI nude mice (5-week-old females) were injected subcutaneously with 10×10^6 exponentially dividing HeLa cells into the right flank. When tumors have reached a volume of about 200 mm 3 i.e. nine days after cell injection, mice were randomized in 9 groups of 8 mice each and drugs were injected intraveinously every two days. The first group received paclitaxel at 2 mg/kg, the second group received paclitaxel at 3 mg/Kg, the third group received compound (I-a) at 40 mg/Kg, the fourth group received compound (I-a) at 60 mg/Kg, the fifth group received a combination of compound (I-a) (40 mg/Kg) and paclitaxel (2 mg/Kg), the sixth group received a combination of compound (I-a) (40 mg/Kg) and paclitaxel (3 mg/Kg), the seventh group received a combination of compound (I-a) (60 mg/Kg) and paclitaxel (2 mg/Kg), the eight group received a combination of compound (I-a) (60 mg/Kg) and paclitaxel (3 mg/Kg) and the ninth group received the vehicle (14% DMSO, 14% Tween 80 and 72% PBS). Tumor growth was monitored three times per week with a sliding caliper.

[8] = test system: RPE-1 cells; assay: Prestoblue viability assay on non-cancerous RPE-1 cells; assay type: cell-based
Procedure: RPE-1 cells were incubated for 72 hours with the indicated combinations of compound (I-a)/paclitaxel. The percentage of viable cells was calculated following a Prestoblue assay, as described above. Data are presented as mean±SEM of 3 independent experiments.

[9] = compound alone, HeLa cells, read-out: GI50 (50% of growth inhibition)
[10] = combination study, each compound administered separately (paclitaxel 2 or 3 mg/Kg, (I-a) 40 or 60 mg/Kg)
[11] = paclitaxel 5 nM, after 15 hours

For Cc1cc(-n2cccc2)c(C)c2c1[nH]c1ccc(Cl)cc12 [Compound (I-a)], the “cytotoxicity of the compound on its own” value ([1]; 12 μM, HeLa cells) was “not cytotoxic”, the GI50 [1, 9] was 19400 to 21800 nM and the “effect on cell apoptosis when combined with paclitaxel” value [2] was “synergistic effect”. For the same molecule, the “effect of the combination with paclitaxel on cell viability” value [3] was “synergistic effect”, the “% time spent growing” value [4] was 60.40 ± 0.25 % and the “% time spent in pause” value [4] was 39.60 ± 0.31 %. For the same molecule, the “Catastrophe frequency (min^−1 ± SE)” value [4] was 2.74 ± 0.70 min⁻¹, the “Growth rate (μm/min ± SE)” value [4] was 10.20 ± 0.05 μm/min and the “Catastrophe frequency (μm^−1 ± SE)” value ([4]; distance-based) was 0.46 ± 0.05 *** μm^−1. For the same molecule, the “chromosome congression in mitotic cells” value ([5]; 12 μM) was “chromosome congression defects were visible in several mitotic cells”, the “chromosome congression in mitotic cells” value ([5]; 25 μM) was “occurrence of such defects was increased” and the “effect on microtubule network in interphase cells” value ([5]; 12-25 μM, 5-hour exposure) was “does not visibly perturb microtubule network”. For the same molecule, the cell cycle effect ([6]; compound (I-a) 12 μM) was “blocked in G2/M phase”, the cell cycle effect ([6]; compound (I-a) 25 μM) was “the large majority of the cells is blocked in prometaphase” and the tumor size [7, 10] was “no effect”. For the same molecule, the tumor size ([7]; first experiment, compound (I-a) alone 15 to 60 mg/Kg i.v. every two days) was “did not induce a significant effect on tumor size”, the “weight of treated animals versus vehicle-treated animals” value ([7]; first experiment) was “not significantly different” and the “toxicity toward non-cancerous cells” value ([8]; 72 hours) was “does not induce additional toxicity”. For the same molecule, the “effect on cell viability in combination with PTX” value ([8]; compound at 25 μM) was “able to synergistically affect cell viability”.

Work on Cc1cc(-n2cccc2)c(C)c2c1[nH]c1cc(Cl)ccc12 [(I-e)] yielded a GI50 [1, 9] of 14800 nM.

In the case of Cc1cc(-n2ccc(C=O)c2)c(C)c2c1[nH]c1ccc(Br)cc12 [Compound (I-h)], the GI50 [1, 9] is reported as 1060 nM.

In the case of Cc1cc(-n2ccc(CO)c2)c(C)c2c1[nH]c1ccc(Cl)cc12 [Compound (I-s)], the GI50 [1, 9] is reported as 2000 nM.

Work on Cc1cc(-n2ccc(C=O)c2)c(C)c2c1[nH]c1ccc(Cl)cc12 [(I-c)] yielded a GI50 [1, 9] of 2000 nM.

For CC(=O)O[C@H]1C(=O)[C@@]2(C)[C@H]([C@H](OC(=O)c3ccccc3)[C@]3(O)C[C@H](OC(=O)[C@H](O)[C@@H](NC(=O)c4ccccc4)c4ccccc4)C(C)=C1C3(C)C)[C@]1(OC(C)=O)CO[C@@H]1C[C@@H]2O [Paclitaxel, paclitaxel], the GI50 ([1]; 0.1 μM compound (I-h) added to paclitaxel, read-out: GI50 of Paclitaxel) was 1.25 nM, the GI50 ([1]; 0.2 μM compound (I-h) added to paclitaxel, read-out: GI50 of Paclitaxel) was 1.07 nM and the GI50 ([1]; 0.4 μM compound (I-h) added to paclitaxel, read-out: GI50 of Paclitaxel) was 0.79 nM. The GI50 ([1]; 0.8 μM compound (I-e) added to paclitaxel, read-out: GI50 of Paclitaxel) was 1.36 nM, the GI50 ([1]; 1.2 μM compound (I-c) added to paclitaxel, read-out: GI50 of Paclitaxel) was 0.75 nM and the GI50 ([1]; 1.2 μM compound (I-s) added to paclitaxel, read-out: GI50 of Paclitaxel) was 0.75 nM. The GI50 ([1]; 1.5 μM compound (I-e) added to paclitaxel, read-out: GI50 of Paclitaxel) was 1.25 nM, the GI50 ([1]; 1.5 μM compound (I-f) added to paclitaxel, read-out: GI50 of Paclitaxel) was 1.36 nM and the GI50 ([1]; 3 μM compound (I-a) added to paclitaxel, read-out: GI50 of Paclitaxel) was 1.36 nM. For the same molecule, the GI50 ([1]; 3 μM compound (I-e) added to paclitaxel, read-out: GI50 of Paclitaxel) was 1.2 nM, the GI50 ([1]; 3 μM compound (I-f) added to paclitaxel, read-out: GI50 of Paclitaxel) was 1.25 nM and the GI50 ([1]; 3 μM compound (I-m) added to paclitaxel, read-out: GI50 of Paclitaxel) was 1.5 nM. The GI50 ([1]; 3 μM compound (I-n) added to paclitaxel, read-out: GI50 of Paclitaxel) was 1.5 nM, the GI50 ([1]; 6 μM compound (I-a) added to paclitaxel, read-out: GI50 of Paclitaxel) was 1.2 nM and the GI50 ([1]; 6 μM compound (I-f) added to paclitaxel, read-out: GI50 of Paclitaxel) was 0.88 nM. The GI50 ([1]; 6 μM compound (I-m) added to paclitaxel, read-out: GI50 of Paclitaxel) was 1.5 nM, the GI50 ([1]; 6 μM compound (I-n) added to paclitaxel, read-out: GI50 of Paclitaxel) was 1.5 nM and the GI50 ([1]; 12 μM compound (I-a) added to paclitaxel, read-out: GI50 of Paclitaxel) was 0.68 nM. The GI50 ([1]; 12 μM compound (I-m) added to paclitaxel, read-out: GI50 of Paclitaxel) was 1.25 nM, the GI50 ([1]; 12 μM compound (I-n) added to paclitaxel, read-out: GI50 of Paclitaxel) was 1.25 nM and the GI50 ([1]; paclitaxel alone (0 μM compound added), HeLa cells, read-out: GI50 of Paclitaxel) was 1.5 nM. For the same molecule, the “% of apoptosis” value ([2]; Paclitaxel 1 nM) was 13.00 ± 0.48%, the “cell population blocked in G2/M phase” value [6, 11] was “half of the cell population” and the cells in apoptosis [6, 11] was ~20%. For the same molecule, the tumor size [7, 10] was “no effect”, the “weight of treated animals versus vehicle-treated animals” value ([7]; first experiment) was “not significantly different” and the tumor size ([7]; first experiment, paclitaxel 4 and 8 mg/Kg i.v. every two days during 10 days) was “important reduction of tumor size”. It also gave a GI50 ([8]; Homo sapiens, 72 hours) of 7 nM.

Cc1cc(-n2cccc2)c(C)c2c1[nH]c1ccc(Br)cc12 [(I-f)] gave a GI50 [1, 9] of 16200 nM.
